For 13 compounds, TGI and GI50 results are on record in PubChem BioAssay (NCI).

The structures appear in SMILES notation.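 Assay format: 96-well plates, 48-hour exposure. At the GI50, growth is halved. The concentration for full growth arrest is given as TGI.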

Some test systems named below: NCI-H226 lung; CCRF-CEM leukemia; LOX IMVI melanoma; NCI/ADR-RES ovarian; SR leukemia; U251 CNS; OVCAR-8 ovarian.
Assay in all cases: NCI-60 cell line screen, 48 h

`NC(Cc1ccccc1)c1nccs1` (configuration not stated): the TGI in the assay with NCI-H226 lung, in the assay with CCRF-CEM leukemia, with LOX IMVI melanoma, in the assay on NCI/ADR-RES ovarian, in the assay with SR leukemia and in the assay on U251 CNS was greater than 100 µM throughout. For the same compound, the TGI in the assay on OVCAR-8 ovarian is greater than 100 µM.

Take `C/C=C(\C)C(=O)OC1/C=C(\C)CC/C=C(\C)CC2OC(=O)C(C)(OC(C)=O)C12` (configuration not stated): the TGI with NCI-H226 lung, with CCRF-CEM leukemia, with LOX IMVI melanoma, in the assay on NCI/ADR-RES ovarian, in the assay on SR leukemia and with U251 CNS was greater than 100 µM in each case. Further, the TGI in the assay with OVCAR-8 ovarian is greater than 100 µM.

`CC1=NOC(=O)/C1=C/c1ccc2c(c1)OCO2`: the TGI was 49.8 µM with NCI-H226 lung; 67.5 µM with CCRF-CEM leukemia; 36.1 µM in the assay with LOX IMVI melanoma; greater than 100 µM in the assay with NCI/ADR-RES ovarian; 52.5 µM in the assay on SR leukemia; 38 µM with U251 CNS. This compound came in with a TGI in the assay on OVCAR-8 ovarian of 86.3 µM.

Consider `Cc1ccc(C(=O)NC2CC2)cc1-c1ccc2[nH]ncc2c1`, for which the GI50 in the assay with NCI-H226 lung, in the assay on CCRF-CEM leukemia, with LOX IMVI melanoma, in the assay on NCI/ADR-RES ovarian, in the assay on SR leukemia and with U251 CNS was greater than 25 µM in each case. Besides, in the assay with OVCAR-8 ovarian, the GI50 was greater than 25 µM. The TGI in the assay with NCI-H226 lung, in the assay with CCRF-CEM leukemia, in the assay on LOX IMVI melanoma, in the assay on NCI/ADR-RES ovarian, in the assay on SR leukemia and in the assay with U251 CNS was greater than 25 µM each time. The compound further had a TGI with OVCAR-8 ovarian greater than 25 µM.

As to `C[C@]12C[C@H](O)[C@H]3[C@@H](CCC4=CC(=O)CC[C@@]43C)[C@@H]1CC[C@@H]2c1csc(-c2ccccc2)n1`, the TGI is greater than 100 µM in the assay with NCI-H226 lung; greater than 100 µM in the assay with LOX IMVI melanoma; greater than 100 µM with NCI/ADR-RES ovarian; greater than 100 µM in the assay on SR leukemia; greater than 71.4 µM in the assay with U251 CNS; greater than 100 µM in the assay on OVCAR-8 ovarian.

For `CO/N=C(\COc1ccc2oc(-c3ccccc3)cc(=O)c2c1)c1ccc(F)cc1`, the GI50 in the assay on NCI-H226 lung is 29.7 µM; in the assay on CCRF-CEM leukemia, greater than 100 µM; in the assay with LOX IMVI melanoma, 25.2 µM; in the assay with NCI/ADR-RES ovarian it was 21 µM; in the assay with SR leukemia, 15.7 µM; with U251 CNS it was 18 µM. Besides, in the assay with OVCAR-8 ovarian, the GI50 is 21 µM. Also, the TGI is greater than 100 µM with NCI-H226 lung; greater than 100 µM with CCRF-CEM leukemia; 77.9 µM in the assay with LOX IMVI melanoma; 49.9 µM in the assay with NCI/ADR-RES ovarian; greater than 100 µM in the assay on SR leukemia; 35.1 µM in the assay with U251 CNS. The compound also returned a TGI in the assay with OVCAR-8 ovarian of 47.6 µM.

For the compound `C=C1CCC2C3(C)COC(c4ccccc4Cl)OC3CCC2(C)C1/C=C/C1=CCOC1=O` (configuration not stated), the GI50 in the assay with NCI-H226 lung is 14.3 µM; in the assay on CCRF-CEM leukemia, 5.33 µM; in the assay on LOX IMVI melanoma it was 6.77 µM; with NCI/ADR-RES ovarian, 7.74 µM; with SR leukemia, 3.97 µM; in the assay on U251 CNS, 24 µM. Also, the GI50 with OVCAR-8 ovarian is 13.8 µM. The TGI in the assay with NCI-H226 lung, in the assay with CCRF-CEM leukemia, in the assay with LOX IMVI melanoma, with NCI/ADR-RES ovarian, in the assay with SR leukemia and with U251 CNS was greater than 100 µM each time. In addition, the TGI in the assay with OVCAR-8 ovarian was greater than 100 µM.

Take `CC1=C(C)SC(=C2Sc3c(n(C)c(=O)n(C)c3=O)S2)S1`: the TGI with NCI-H226 lung was 48.5 µM; in the assay on CCRF-CEM leukemia it was greater than 100 µM; in the assay with LOX IMVI melanoma, greater than 100 µM; in the assay on NCI/ADR-RES ovarian it was greater than 100 µM; in the assay on U251 CNS, 18.9 µM; with OVCAR-8 ovarian, 64.5 µM.

`NC(=O)NN=C1Cc2ccccc2C1`: the TGI in the assay with NCI-H226 lung, in the assay with CCRF-CEM leukemia, in the assay on LOX IMVI melanoma, in the assay on NCI/ADR-RES ovarian, in the assay with SR leukemia and in the assay on U251 CNS was greater than 100 µM in each case. Besides, in the assay on OVCAR-8 ovarian, the TGI was greater than 100 µM.

In the case of `CC1(C)CCC[C@]2(C)c3ccccc3C(=O)CC12` (some centres not stated), the GI50 with NCI-H226 lung was 22.9 µM; in the assay with CCRF-CEM leukemia, 31.7 µM; in the assay on LOX IMVI melanoma, 38.4 µM; in the assay with NCI/ADR-RES ovarian, 20.3 µM; in the assay on U251 CNS, 42.3 µM; in the assay with OVCAR-8 ovarian, 32.1 µM. In addition, the TGI is greater than 100 µM with NCI-H226 lung; greater than 100 µM in the assay with CCRF-CEM leukemia; greater than 100 µM with LOX IMVI melanoma; 91.1 µM in the assay with NCI/ADR-RES ovarian; greater than 100 µM in the assay with U251 CNS; greater than 100 µM in the assay on OVCAR-8 ovarian.

Take `COc1c(N2CCN(CN3C(=O)C(=Nc4ccc(S(=O)(=O)Nc5ncccn5)cc4)c4cc(Cl)ccc43)C(C)C2)c(F)cc2c(=O)c(C(=O)O)cn(C3CC3)c12` (configuration not stated): the GI50 in the assay on NCI-H226 lung is 30 µM; with LOX IMVI melanoma it was 12.8 µM; in the assay with NCI/ADR-RES ovarian it was 12.3 µM; in the assay on SR leukemia, 12.4 µM; in the assay on U251 CNS, 34.8 µM; in the assay with OVCAR-8 ovarian it was 13.9 µM. Moreover, the TGI in the assay with NCI-H226 lung was greater than 50 µM; in the assay with LOX IMVI melanoma, greater than 50 µM; with NCI/ADR-RES ovarian, 38.1 µM; in the assay on SR leukemia, greater than 50 µM; with U251 CNS, greater than 50 µM; in the assay on OVCAR-8 ovarian it was greater than 50 µM.

On to `COCCNc1cncc(C(N)=O)c1`, for which the TGI in the assay with NCI-H226 lung, with CCRF-CEM leukemia, with NCI/ADR-RES ovarian, with SR leukemia, in the assay on U251 CNS and in the assay on OVCAR-8 ovarian was greater than 100 µM each time.

Regarding `O=C1N=C(Nc2nc(-c3csc(NC4=NC(=O)/C(=C\c5ccccc5)S4)n3)cs2)S/C1=C/c1ccccc1`, the GI50 with NCI-H226 lung was 0.337 µM; in the assay with LOX IMVI melanoma, greater than 50 µM; with NCI/ADR-RES ovarian it was 15.9 µM; in the assay on U251 CNS it was 6.34 µM; in the assay with OVCAR-8 ovarian it was 15.6 µM. Further, the TGI with NCI-H226 lung was 12.8 µM; with LOX IMVI melanoma it was greater than 50 µM; in the assay on NCI/ADR-RES ovarian it was greater than 50 µM; with U251 CNS, greater than 50 µM; in the assay on OVCAR-8 ovarian, greater than 50 µM.
